Source: US8741932B2, “Imidazopyridine derivatives” (Piramal Enterprises Limited, priority 2009, dated 2014)

How the values were obtained:
[1] = test system: OVCAR 3; experiment: Cytotoxicity assay (propidium iodide), OVCAR 3; format: cell-based; conditions: Homo sapiens; OVCAR 3 (C3c, ovarian); 48 hours
Experimental: (§1) Cells from cell lines as mentioned in the table given below were seeded at a density of 3000 cells/well in a white opaque 96-well plate. Following incubation at 37° C./5% CO2 for a period of 18-24 hours, the cells were treated with various concentrations (stock solution was prepared in DMSO and subsequent dilutions were made in media as per ATCC guidelines) of the representative compounds of present invention (refer table 3) for a period of 48 hours. At the end of treatment, the spent culture medium was discarded, the cells were washed with 1×PBS and 200 μl of 7 μg/ml propidium iodide was added to each well. The plates were frozen at −70° C. for at least 24 hours. For analysis, the plates were brought to RT, allowed to thaw and were read in PolarStar fluorimeter with the fluorescence setting. The percentage of viable cells in the non treated set of wells was considered to be 100 and the percentage viability following treatment was calculated accordingly. IC50 values were calculated from graphs plotted using these percentages.

[2] = test system: A549; experiment: Cytotoxicity assay (propidium iodide), A549; format: cell-based; conditions: Homo sapiens; A549 (C1a, lung); 48 hours
Experimental: as §1

[3] = target: T1, mTOR (Homo sapiens, UniProt P42345); experiment: mTOR activity assay (cell ELISA, Phospho-AKT Ser 473, A2780 cells); format: cell-based; conditions: for inhibition at 1 µM: read-out: % Inhibition of mTOR activity at 1 μM
T1 construct: endogenous in cells; host or cells: A2780 ovarian cell line (ATCC)
Procedure, shortened: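 A2780 cells adhered 18-24 h, serum-starved 24 h, then stimulated with 20% FCS for 30 min alongside compound-treated sets. Fixed cells probed for phospho-AKT Ser473 by HRP/OPD cell ELISA, absorbance 490 nm. Values given as percentage or fold decrease in AKT phosphorylation relative to stimulated cells.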

[4] = test system: T47D; experiment: Cytotoxicity assay (propidium iodide), T47D; format: cell-based; conditions: Homo sapiens; T47D (C6e, breast); 48 hours
Experimental: as §1

[5] = test system: STAT3; experiment: STAT3 bioassay (Hela Stat3-luc, luciferase); format: cell-based; conditions: Homo sapiens, Oncostatin M induction
Procedure, shortened: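 Hela Stat3-luc cells (20,000/well, 24 h) pretreated with compound 1 h, then induced with 100 ng/ml final Oncostatin M for 7-8 h at 37 °C. Luciferase luminescence after lysis; percent inhibition versus induction control, IC50 from these percentages.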

[6] = target: T2, PI3Kα kinase (Homo sapiens, UniProt P42336); experiment: Kinase assay (PI3Kα); format: biochemical; conditions: read-out: IC50 (μM) for PI3K inhibition
T2 construct: purchased Millipore, USA
Procedure, shortened: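 Recombinant PI3Kα (20 ng) phosphorylated 12.5 μg phosphatidylinositol with 10 μM ATP and 1 μCi ^32γ P […] in 10 mM Hepes pH 7.5, 50 mM MgCl2 for 20 min at 30° C. Lipids were extracted with MeOH/CHCl3, resolved by TLC, and labelled PI quantified by autoradiography densitometry; PI-103 served as standard.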

[7] = test system: BT 549; experiment: Cytotoxicity assay (propidium iodide), BT 549; format: cell-based; conditions: Homo sapiens; BT 549 (C6d, breast); 48 hours
Experimental: as §1

[8] = test system: PC3; experiment: Cytotoxicity assay (propidium iodide), PC3; conditions: Homo sapiens, PC-3, 48 h, read-out: IC50 cytotoxicity
[9] = test system: H460; experiment: Cytotoxicity assay (propidium iodide), H460; format: cell-based; conditions: Homo sapiens, NCI-H460; H460 (C1b, lung); 48 hours
Experimental: as §1

[10] = test system: MDA MB 231; experiment: Cytotoxicity assay (propidium iodide), MDA MB 231; format: cell-based; conditions: Homo sapiens; MDA MB 231 (C6a, breast); 48 hours
Experimental: as §1

T2 sequence (P42336 whole entry): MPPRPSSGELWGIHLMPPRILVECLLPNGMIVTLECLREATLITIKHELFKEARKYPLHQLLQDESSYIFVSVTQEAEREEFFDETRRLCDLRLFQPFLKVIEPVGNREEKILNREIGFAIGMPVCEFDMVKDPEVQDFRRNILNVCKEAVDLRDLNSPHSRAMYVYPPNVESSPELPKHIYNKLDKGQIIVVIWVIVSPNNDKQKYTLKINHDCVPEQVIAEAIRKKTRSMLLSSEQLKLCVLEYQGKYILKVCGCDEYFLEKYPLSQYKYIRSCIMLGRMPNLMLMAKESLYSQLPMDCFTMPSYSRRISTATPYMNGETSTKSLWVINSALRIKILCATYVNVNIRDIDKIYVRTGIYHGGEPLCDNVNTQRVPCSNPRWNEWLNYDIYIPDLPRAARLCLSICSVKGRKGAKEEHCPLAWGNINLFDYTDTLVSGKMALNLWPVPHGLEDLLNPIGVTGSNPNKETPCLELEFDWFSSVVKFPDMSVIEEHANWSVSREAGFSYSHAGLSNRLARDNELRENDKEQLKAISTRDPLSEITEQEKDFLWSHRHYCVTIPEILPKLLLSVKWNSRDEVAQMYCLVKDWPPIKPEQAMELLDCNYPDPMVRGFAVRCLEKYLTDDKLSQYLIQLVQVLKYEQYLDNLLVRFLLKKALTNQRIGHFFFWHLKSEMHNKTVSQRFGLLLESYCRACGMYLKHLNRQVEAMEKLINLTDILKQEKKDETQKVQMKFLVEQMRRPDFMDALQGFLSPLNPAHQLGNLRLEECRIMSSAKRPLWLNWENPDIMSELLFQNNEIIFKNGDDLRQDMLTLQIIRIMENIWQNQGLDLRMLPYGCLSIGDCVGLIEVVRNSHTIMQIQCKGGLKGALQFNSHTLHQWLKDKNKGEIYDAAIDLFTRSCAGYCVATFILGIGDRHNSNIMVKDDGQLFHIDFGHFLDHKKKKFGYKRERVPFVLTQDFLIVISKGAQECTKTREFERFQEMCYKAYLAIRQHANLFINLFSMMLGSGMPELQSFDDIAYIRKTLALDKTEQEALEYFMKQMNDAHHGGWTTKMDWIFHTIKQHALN
T2 sequence (P27986 whole entry partner): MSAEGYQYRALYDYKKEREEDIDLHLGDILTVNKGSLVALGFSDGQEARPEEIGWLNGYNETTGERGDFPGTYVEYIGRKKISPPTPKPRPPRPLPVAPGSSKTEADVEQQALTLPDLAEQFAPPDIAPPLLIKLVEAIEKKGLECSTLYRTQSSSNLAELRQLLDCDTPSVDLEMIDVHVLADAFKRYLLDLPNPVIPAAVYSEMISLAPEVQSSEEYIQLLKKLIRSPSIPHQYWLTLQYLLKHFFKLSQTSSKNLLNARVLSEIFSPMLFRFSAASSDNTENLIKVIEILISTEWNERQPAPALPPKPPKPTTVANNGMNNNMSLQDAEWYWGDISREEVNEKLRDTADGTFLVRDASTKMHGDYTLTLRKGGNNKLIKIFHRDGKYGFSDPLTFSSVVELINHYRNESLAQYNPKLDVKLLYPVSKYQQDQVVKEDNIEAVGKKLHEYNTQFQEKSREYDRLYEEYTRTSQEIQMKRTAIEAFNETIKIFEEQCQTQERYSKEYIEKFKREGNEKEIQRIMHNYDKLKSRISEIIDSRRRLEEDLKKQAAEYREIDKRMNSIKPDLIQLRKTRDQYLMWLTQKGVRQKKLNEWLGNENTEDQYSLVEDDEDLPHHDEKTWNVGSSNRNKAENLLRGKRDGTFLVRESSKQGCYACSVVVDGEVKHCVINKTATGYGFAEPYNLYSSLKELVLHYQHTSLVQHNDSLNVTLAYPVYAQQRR

SMILES	IC50 [3]	IC50 [5]	IC50 [6]	inhibition at 1 µM [3]	IC50 [1]	IC50 [2]	IC50 [4]	IC50 [7]	IC50 [8]	IC50 [9]	IC50 [10]
CN(N=Cc1cnc2ccc(-c3cccnc3)cn12)S(=O)(=O)c1cccc(F)c1 [Example 5, 3-Fluoro-N-methyl-N′-((6-(pyridine-3-yl)imidazo[1,2-a]pyridine-3-yl)methylene)benzenesulfonohydrazide]	1000 to 5000 nM	100 to 5000 nM	0.5 to 1 µM	–	10 to 5000 nM	10 to 5000 nM	> 5000 nM	–	–	–	–
CN(N=Cc1cnc2ccc(-c3cccnc3)cn12)S(=O)(=O)c1ccc(F)cc1 [Example 6, 4-Fluoro-N-methyl-N′-((6-(pyridine-3-yl)imidazo[1,2-a]pyridine-3-yl)methylene)benzenesulfonohydrazide]	–	5000 to 10000 nM	0.5 to 1 µM	30 to 50%	10 to 5000 nM	10 to 5000 nM	> 5000 nM	–	–	–	–
CN(N=Cc1cnc2ccc(-c3cccnc3)cn12)S(=O)(=O)c1cc(F)cc(F)c1 [Example 16, 3,5-Difluoro-N-methyl-N′-((6-(pyridine-3-yl)imidazo[1,2-a]pyridine-3-yl)methylene) benzenesulfonohydrazide]	–	5000 to 10000 nM	0.5 to 1 µM	30 to 50%	–	–	–	–	–	–	–

Continued, in another order:

IC50 [3]	IC50 [5]	IC50 [6]	inhibition at 1 µM [3]	SMILES	IC50 [1]	IC50 [2]	IC50 [4]	IC50 [7]	IC50 [8]	IC50 [9]	IC50 [10]
1000 to 5000 nM	5000 to 10000 nM	0.01 to 0.5 µM	–	Cc1ccc(F)cc1S(=O)(=O)N(C)N=Cc1cnc2ccc(-c3cccnc3)cn12 [Example 21, 5-Fluoro-N, 2-dimethyl-N′-((6-(pyridine-3-yl)imidazo[1,2-a]pyridine-3-yl)methylene) benzenesulfonohydrazide]	10 to 5000 nM	10 to 5000 nM	–	10 to 5000 nM	10 to 5000 nM	10 to 5000 nM	10 to 5000 nM
1000 to 5000 nM	100 to 5000 nM	0.01 to 0.5 µM	–	Cc1ccc([N+](=O)[O-])cc1S(=O)(=O)N(C)N=Cc1cnc2ccc(-c3cccnc3)cn12 [Example 25]	10 to 5000 nM	10 to 5000 nM	10 to 5000 nM	10 to 5000 nM	10 to 5000 nM	10 to 5000 nM	10 to 5000 nM
